pIC50: −log10 of the molar value. Like-named read-outs stand apart in the source and are kept apart here.
Legend:
hNAMPT protein = hNAMPT protein (Homo sapiens (Human), UniProt P43490); test: NAMPT enzyme assay (TR-FRET/HTRF, BodiPY ligand, anti 6His-Tb); format: binding; conditions: for inhibition at 1 µM: read-out: Percent Inhibition; for pIC50: read-out: IC50
Method in brief: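 TR-FRET binding assay in which His-tagged human NAMPT with anti-6His-Tb is displaced by compound from a BodiPY ligand, incubated 1 h at rt in the dark. Excitation was at 320 nm, with the 520/486 nm emission ratio read. IC50 was fitted from inhibition relative to DMSO controls.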

PC3 cells = test: PC3 growth inhibition (Cell-titer glo, 72 hours); format: cell-based; conditions: Homo sapiens, PC-3, PC3 cells, 72 hours, Cell-titer glo, read-out: Percent Inhibition (PC3 growth inhibition); for inhibition at 1.667 µM: compound concentration 1.667 μM; for inhibition at 1 µM: compound concentration 1 μM
Method in brief: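 PC3 cells in RPMI1640 seeded overnight at 37 °C, 5% CO2, then exposed to compound diluted in AIM serum-free medium for 72 h. Viability by CellTiter-Glo luminescence vs DMSO controls; single-concentration % remaining viability (1 μM or 1.667 μM), or GI50/LD50 from curves.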

[1] = NAMPT inhibition at compound concentration 1 μM
[2] = NAMPT inhibition, IC50 range class

Sequence of hNAMPT protein (P43490 whole entry): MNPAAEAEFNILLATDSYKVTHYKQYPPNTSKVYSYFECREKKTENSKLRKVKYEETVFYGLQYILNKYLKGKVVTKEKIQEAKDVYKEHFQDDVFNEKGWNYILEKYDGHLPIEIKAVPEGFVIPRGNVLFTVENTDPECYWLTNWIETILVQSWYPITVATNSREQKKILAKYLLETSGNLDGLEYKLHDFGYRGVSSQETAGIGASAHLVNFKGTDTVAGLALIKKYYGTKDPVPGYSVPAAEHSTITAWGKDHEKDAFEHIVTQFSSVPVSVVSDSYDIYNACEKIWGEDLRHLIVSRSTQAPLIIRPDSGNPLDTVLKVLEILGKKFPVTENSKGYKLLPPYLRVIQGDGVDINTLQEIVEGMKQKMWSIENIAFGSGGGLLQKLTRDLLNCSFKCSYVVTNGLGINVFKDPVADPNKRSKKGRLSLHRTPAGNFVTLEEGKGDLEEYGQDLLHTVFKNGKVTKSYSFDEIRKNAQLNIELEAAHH

Row | Compound | inhibition at 1 µM (hNAMPT protein; [1]) [%] | pIC50 (hNAMPT protein; [2]) | inhibition at 1.667 µM (PC3 cells) [%] | pIC50 (hNAMPT protein; NAMPT IC50 range class) | inhibition at 1 µM (hNAMPT protein; compound concentration 1 μM) [%] | inhibition at 1 µM (PC3 cells) [%]
1 | O=C(NCCCc1ncc[nH]1)c1ccc2nc(-c3ccc(F)cc3)c(-c3ccc(Cl)c(F)c3)nc2c1 [Compound I-431, 3-(4-chloro-3-fluorophenyl)-2-(4-fluorophenyl)-N-[3-(1H-imidazol-2-yl)propyl]quinoxaline-6-carboxamide] | 90 | 6.30 to 7.00 | 2 | – | – | –
2 | CC(C)(C)OC(=O)NCC1(O)CCN(C2CCN(c3nc4ccc(C(=O)NCCCn5ccnc5)cc4nc3-c3ccccc3)CC2)CC1 [Compound I-231, tert-Butyl {[4-hydroxy-1′-(6-{[3-(1H-imidazol-1-yl)propyl]carbamoyl}-3-phenylquinoxalin-2-yl)-1,4′-bipiperidin-4-yl]methyl}carbamate] | – | – | – | > 7.00 | 95 | -2
3 | O=C(NCCCn1ccnc1)c1ccc2nc(N3CCC(N4CCNC4=O)CC3)c(-c3ccccc3)nc2c1 [Compound I-272, N-[3-(1H-imidazol-1-yl)propyl]-2-[4-(2-oxoimidazolidin-1-yl)piperidin-1-yl]-3-phenylquinoxaline-6-carboxamide] | – | – | – | 6.30 to 7.00 | 72 | -6
4 | O=C(NCCCn1ccnc1)c1ccc2nc(N3CCC(N4CCOCC4)CC3)c(-c3ccccc3)nc2c1 [Compound I-199, N-[3-(1H-imidazol-1-yl)propyl]-2-[4-(morpholin-4-yl)piperidin-1-yl]-3-phenylquinoxaline-6-carboxamide] | – | – | – | > 7.00 | 101 | 0
5 | O=C(NCCc1cccnc1)c1ccc2nc(-c3ccco3)c(-c3ccco3)nc2c1 [Compound I-117, 2,3-di(2-furyl)-N-[2-(pyridin-3-yl)ethyl]quinoxaline-6-carboxamide] | – | – | – | 5.00 to 5.70 | 22 | 97
6 | O=C(NCCCc1ncc[nH]1)c1ccc2nc(-c3ccc(F)cc3)c(-c3ccc(Cl)cc3)nc2c1 [Compound I-361, 3-(4-chlorophenyl)-2-(4-fluorophenyl)-N-[3-(1H-imidazol-2-yl)propyl]quinoxaline-6-carboxamide] | – | – | 1 | > 7.00 | 98 | –
7 | CC(C)Oc1nc2ccc(C(=O)NCCCc3cn[nH]c3)cc2nc1-c1ccc(F)cc1 [Compound I-380, 3-(4-Fluorophenyl)-2-isopropoxy-N-[3-(1H-pyrazol-4-yl)propyl]quinoxaline-6-carboxamide] | – | – | 2 | 6.00 to 6.30 | 55 | –
8 | CC(C)Oc1nc2ccc(C(=O)NCCCc3ncc[nH]3)cc2nc1-c1ccc(F)c(F)c1 [Compound I-339, 3-(3,4-difluorophenyl)-N-[3-(1H-imidazol-2-yl)propyl]-2-isopropoxyquinoxaline-6-carboxamide] | – | – | 1 | > 7.00 | 91 | –
9 | Cn1ccc(CCNC(=O)c2ccc3nc(-c4ccc(F)cc4)c(-c4ccc(F)cc4)nc3c2)n1 [Compound I-108, 2,3-bis(4-fluorophenyl)-N-[2-(1-methyl-1H-pyrazol-3-yl)ethyl]quinoxaline-6-carboxamide] | – | – | – | 5.70 to 6.00 | 44 | 93
10 | CC(C)Oc1nc2ccc(C(=O)NCc3ccc4nccn4c3)cc2nc1-c1ccc(Cl)s1 [Compound I-403, 3-(5-chloro-2-thienyl)-N-(imidazo[1,2-a]pyridin-6-ylmethyl)-2-isopropoxyquinoxaline-6-carboxamide] | 89 | 6.30 to 7.00 | 0 | – | – | –
11 | O=C(NCCCc1ncc[nH]1)c1ccc2nc(-n3cccn3)c(-c3ccc(F)cc3)nc2c1 [Compound I-434, 3-(4-fluorophenyl)-N-[3-(1H-imidazol-2-yl)propyl]-2-(1H-pyrazol-1-yl)quinoxaline-6-carboxamide] | 76 | 6.30 to 7.00 | 3 | – | – | –
12 | O=C(c1ccc2nc(-c3ccc(F)cc3)c(-c3ccc(F)cc3)nc2c1)N1CCc2nocc2C1 [Compound I-266, [2,3-bis(4-fluorophenyl)quinoxalin-6-yl](6,7-dihydroisoxazolo[4,3-c]pyridin-5(4H)-yl)methanone] | – | – | – | 5.00 to 5.70 | 15 | 104
13 | O=C(NCCCn1ccnc1)c1ccc2nc(-c3cncnc3)c(-c3ccccc3)nc2c1 [Compound I-242, N-[3-(1H-imidazol-1-yl)propyl]-3-phenyl-2-(pyrimidin-5-yl)quinoxaline-6-carboxamide] | – | – | – | 5.70 to 6.00 | 45 | -7
14 | Cc1ccc(-c2nc3cc(C(=O)NCCCc4ncc[nH]4)ccc3nc2-c2ccc(F)cc2)cc1C [Compound I-433, 3-(3,4-dimethylphenyl)-2-(4-fluorophenyl)-N-[3-(1H-imidazol-2-yl)propyl]quinoxaline-6-carboxamide] | 79 | 6.30 to 7.00 | 3 | – | – | –
15 | O=C(NCCCc1ncc[nH]1)c1ccc2nc(OCc3cn[nH]c3)c(-c3ccc(F)cc3)nc2c1 [Compound I-347, 3-(4-fluorophenyl)-N-[3-(1H-imidazol-2-yl)propyl]-2-(1H-pyrazol-4-ylmethoxy)quinoxaline-6-carboxamide] | – | – | 33 | > 7.00 | 97 | –
16 | O=C(NCCCn1ccnc1)c1ccc2nc(-c3ccccc3)c(-c3cccc(Cl)c3)nc2c1 [Compound I-224, 3-(3-chlorophenyl)-N-[3-(1H-imidazol-1-yl)propyl]-2-phenylquinoxaline-6-carboxamide] | – | – | – | 6.30 to 7.00 | 74 | 1
17 | Cn1cc2c(n1)CN(c1nc3cc(C(=O)NCCCn4ccnc4)ccc3nc1-c1ccccc1)CC2 [Compound I-295, N-[3-(1H-imidazol-1-yl)propyl]-3-(2-methyl-2,4,5,7-tetrahydro-6H-pyrazolo[3,4-c]pyridin-6-yl)-2-phenylquinoxaline-6-carboxamide] | – | – | – | 5.70 to 6.00 | 49 | -6
18 | O=C(NCCCc1ncc[nH]1)c1ccc2nc(-c3ccc(F)cc3)c(-c3ccc(F)c(F)c3)nc2c1 [Compound I-474, 3-(3,4-difluorophenyl)-2-(4-fluorophenyl)-N-[3-(1H-imidazol-2-yl)propyl]quinoxaline-6-carboxamide] | 95 | 6.30 to 7.00 | 3 | – | – | –
19 | O=C(NCCCc1ncc[nH]1)c1ccc2nc(Cl)c(-c3ccc(F)cc3)nc2c1 [Compound I-211, 2-Chloro-3-(4-fluorophenyl)-N-[3-(1H-imidazol-2-yl)propyl]quinoxaline-6-carboxamide] | – | – | > 99 | 6.30 to 7.00 | 79 | –
20 | O=C(NCCCc1ncc[nH]1)c1ccc2nc(OCC3CCCCC3)c(-c3ccc(F)cc3)nc2c1 [Compound I-314, 2-(cyclohexylmethoxy)-3-(4-fluorophenyl)-N-[3-(1H-imidazol-2-yl)propyl]quinoxaline-6-carboxamide] | – | – | 3 | > 7.00 | 91 | –
21 | O=C(NCCCn1ccnc1)c1ccc2nc(-c3ccccc3)c(N3CCOCC3)nc2c1 [Compound I-144, N-[3-(1H-imidazol-1-yl)propyl]-3-(morpholin-4-yl)-2-phenylquinoxaline-6-carboxamide] | – | – | – | 5.70 to 6.00 | 43 | 2
22 | O=C(NCCCn1ccnc1)c1ccc2nc(-c3ccsc3)c(-c3ccccc3)nc2c1 [Compound I-60, N-[3-(1H-imidazol-1-yl)propyl]-3-phenyl-2-(3-thienyl)quinoxaline-6-carboxamide] | – | – | – | 6.00 to 6.30 | 51 | -4
23 | CC(=O)Nc1ccccc1-c1nc2cc(C(=O)NCCCn3ccnc3)ccc2nc1-c1ccccc1 [Compound I-135, 3-(2-acetamidophenyl)-N-[3-(1H-imidazol-1-yl)propyl]-2-phenylquinoxaline-6-carboxamide] | – | – | – | 5.00 to 5.70 | 16 | 101
24 | COc1ccccc1-c1nc2cc(C(=O)NCCCn3ccnc3)ccc2nc1-c1ccccc1 [Compound I-36, N-[3-(1H-imidazol-1-yl)propyl]-3-(2-methoxyphenyl)-2-phenylquinoxaline-6-carboxamide] | – | – | – | 6.30 to 7.00 | 51 | 1
25 | Cc1ccc(C(F)(F)F)cc1-c1nc2cc(C(=O)NCCCc3ncc[nH]3)ccc2nc1-c1ccc(F)cc1 [Compound I-445, 2-(4-fluorophenyl)-N-[3-(1H-imidazol-2-yl)propyl]-3-[2-methyl-5-(trifluoromethyl)phenyl]quinoxaline-6-carboxamide] | 91 | > 7.00 | 2 | – | – | –
26 | CCN(CC)c1nc2ccc(C(=O)NCCCn3ccnc3)cc2nc1-c1ccccc1 [Compound I-207, 2-(diethylamino)-N-[3-(1H-imidazol-1-yl)propyl]-3-phenylquinoxaline-6-carboxamide] | – | – | – | 6.30 to 7.00 | 69 | -7
27 | O=C(NCc1ccc2nccn2c1)c1ccc2nc(N3CCC(O)CC3)c(-c3ccc(F)cc3)nc2c1 [Compound I-156, 3-(4-Fluorophenyl)-2-(4-hydroxypiperidin-1-yl)-N-(imidazo[1,2-a]pyridin-6-ylmethyl)quinoxaline-6-carboxamide] | – | – | 2 | > 7.00 | 97 | –
